Measured values reported in PubChem BioAssay AID256 (DTP/NCI, 2004).
Toxic doses and inconclusive results are not listed. How the source made its calls: active means survival T/C of 150% or more; inactive means T/C below 125% in these data.

System: CD2F1 mice, L1210 leukemia ip, survival T/C
Experiment: NCI In Vivo Anticancer Drug Screen. Data for tumor model L1210 Leukemia (intraperitoneal) in CD2F1 (CDF1) mice
Conditions: higher = longer survival
How it was run: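 Ratio T/C, where T is the treated-group value and C the vehicle-dosed control value, from mice implanted with a transplantable tumor.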

[1] = endpoint: mean survival time, dose: 100.0 mg/kg/injection, schedule: Q04DX003 (ip), vehicle: saline with Tween-80
[2] = endpoint: mean survival time, dose: 200.0 mg/kg/injection, schedule: Q04DX003 (ip), vehicle: saline with Tween-80
[3] = endpoint: mean survival time, dose: 25.0 mg/kg/injection, schedule: Q01DX009 (ip), vehicle: saline with Tween-80
[4] = endpoint: mean survival time, dose: 50.0 mg/kg/injection, schedule: Q01DX009 (ip), vehicle: saline with Tween-80
[5] = endpoint: mean survival time, dose: 100.0 mg/kg/injection, schedule: Q01DX009 (ip), vehicle: saline with Tween-80
[6] = endpoint: mean survival time, dose: 200.0 mg/kg/injection, schedule: Q01DX009 (ip), vehicle: saline with Tween-80
[7] = endpoint: mean survival time, dose: 400.0 mg/kg/injection, schedule: Q01DX009 (ip), vehicle: saline with Tween-80
[8] = endpoint: mean survival time, dose: 100.0 mg/kg/injection, schedule: Q01DX001 (ip), vehicle: saline
[9] = endpoint: mean survival time, dose: 400.0 mg/kg/injection, schedule: Q04DX003 (ip), vehicle: saline with Tween-80
[10] = endpoint: mean survival time, dose: 100.0 mg/kg/injection, schedule: Q04DX003 (ip), vehicle: saline
[11] = endpoint: mean survival time, dose: 200.0 mg/kg/injection, schedule: Q04DX003 (ip), vehicle: saline

Measured: T/C

Cc1ccc(Cl)c2nc(-c3ccccc3)ccc12
inactive: endpoint: mean survival time, dose: 37.5 mg/kg/injection, schedule: Q01DX009 (ip), vehicle: saline 105 % of control | endpoint: mean survival time, dose: 75.0 mg/kg/injection, schedule: Q01DX009 (ip), vehicle: saline 116 % of control | endpoint: mean survival time, dose: 75.0 mg/kg/injection, schedule: Q04DX003 (ip), vehicle: saline 112 % of control | endpoint: mean survival time, dose: 150.0 mg/kg/injection, schedule: Q01DX009 (ip), vehicle: saline 101 % of control | endpoint: mean survival time, dose: 150.0 mg/kg/injection, schedule: Q04DX003 (ip), vehicle: saline 103 % of control | endpoint: mean survival time, dose: 300.0 mg/kg/injection, schedule: Q04DX003 (ip), vehicle: saline 93 % of control

CC(C)OC(CCC#N)c1ccc(Cl)cc1 (stereo unspecified)
inactive: endpoint: mean survival time, dose: 100.0 mg/kg/injection, schedule: Q01DX009 (ip), vehicle: other 98 % of control | endpoint: mean survival time, dose: 100.0 mg/kg/injection, schedule: Q04DX003 (ip), vehicle: other 94 % of control | endpoint: mean survival time, dose: 200.0 mg/kg/injection, schedule: Q01DX009 (ip), vehicle: other 107 % of control | endpoint: mean survival time, dose: 200.0 mg/kg/injection, schedule: Q04DX003 (ip), vehicle: other 94 % of control | endpoint: mean survival time, dose: 400.0 mg/kg/injection, schedule: Q01DX009 (ip), vehicle: other 96 % of control | endpoint: mean survival time, dose: 400.0 mg/kg/injection, schedule: Q04DX003 (ip), vehicle: other 93 % of control

COc1cc(/C=C2\C(=O)NC(=O)N(c3ccccc3)C2=O)cc(OC)c1OC
inactive: [1] 100 % of control | [2] 100 % of control

CCCCN1CCCCC1C(=O)Nc1c(C)cccc1C (stereo unspecified)
inactive: endpoint: mean survival time, dose: 9.5 mg/kg/injection, schedule: Q01DX001 (ip), vehicle: saline 102 % of control | endpoint: mean survival time, dose: 19.0 mg/kg/injection, schedule: Q01DX001 (ip), vehicle: saline 102 % of control | endpoint: mean survival time, dose: 38.0 mg/kg/injection, schedule: Q01DX001 (ip), vehicle: saline 100 % of control

CCOC(=O)CCC(C)(C#N)c1ccccc1 (stereo unspecified)
inactive: [3] 96 % of control | [4] 93 % of control | [5] 98 % of control

COc1ccc(NC(=O)Nc2cc(C(F)(F)F)ccc2Cl)cc1
inactive: [5] 90 % of control | [6] 98 % of control | [7] 86 % of control

CN(CC1CCCC1)C1CCCCC1
inactive: [8] 98 % of control

O=S(=O)(O)O.[NH-]CC1(C[NH-])CCCCC1.[Pt+2]
inactive: endpoint: mean survival time, dose: 25.0 mg/kg/injection, schedule: Q04DX003 (ip), vehicle: saline 96 % of control | endpoint: median survival time, dose: 15.98 mg/kg/injection, schedule: Q04DX003 (ip), vehicle: dextrose 108 % of control | endpoint: median survival time, dose: 18.0 mg/kg/injection, schedule: Q04DX003 (ip), vehicle: dextrose 93 % of control | endpoint: median survival time, dose: 24.0 mg/kg/injection, schedule: Q04DX003 (ip), vehicle: dextrose 105 % of control

CCCN=C(N)C(N)=NCCC (tested in a mixture with another compound)
inactive: endpoint: mean survival time, dose: 100.0 mg/kg/injection, schedule: Q04DX002 (ip), vehicle: other 106 % of control | endpoint: mean survival time, dose: 100.0 mg/kg/injection, schedule: Q04DX002 (ip), vehicle: saline with Tween-80 95 % of control | endpoint: mean survival time, dose: 200.0 mg/kg/injection, schedule: Q04DX002 (ip), vehicle: other 103 % of control | endpoint: mean survival time, dose: 200.0 mg/kg/injection, schedule: Q04DX002 (ip), vehicle: saline with Tween-80 100 % of control | endpoint: mean survival time, dose: 400.0 mg/kg/injection, schedule: Q04DX002 (ip), vehicle: other 91 % of control | endpoint: mean survival time, dose: 400.0 mg/kg/injection, schedule: Q04DX002 (ip), vehicle: saline with Tween-80 91 % of control

CCOC(=O)c1ccc(OC(=O)Nc2cc(OC)ccc2OC)cc1
inactive: [5] 93 % of control | [6] 92 % of control

CC(C)Cc1ccc(OC(=O)Nc2ccc(Cl)cc2)cc1
inactive: [3] 106 % of control | [4] 94 % of control | [5] 95 % of control | [1] 86 % of control

CC(C)CCCC(C)C1CCC2C3CCC4CCCCC4(C)C3CCC12C (stereo unspecified)
inactive: [5] 95 % of control | [6] 94 % of control | [7] 105 % of control

COC(=O)C([NH-])c1ccccc1.COC(=O)C([NH-])c1ccccc1.[Cl][Pt+2][Cl] (stereo unspecified)
inactive: endpoint: median survival time, dose: 3.12 mg/kg/injection, schedule: Q04DX003 (ip), vehicle: saline 101 % of control | endpoint: median survival time, dose: 6.25 mg/kg/injection, schedule: Q04DX003 (ip), vehicle: saline 100 % of control | endpoint: median survival time, dose: 12.5 mg/kg/injection, schedule: Q04DX003 (ip), vehicle: saline 100 % of control | endpoint: median survival time, dose: 25.0 mg/kg/injection, schedule: Q04DX003 (ip), vehicle: saline 101 % of control | endpoint: median survival time, dose: 50.0 mg/kg/injection, schedule: Q04DX003 (ip), vehicle: saline 101 % of control | endpoint: median survival time, dose: 100.0 mg/kg/injection, schedule: Q04DX003 (ip), vehicle: saline 103 % of control

C=C(C(=O)O)C(N)C(=O)O (stereo unspecified)
inactive: endpoint: median survival time, dose: 25.0 mg/kg/injection, schedule: Q01DX009 (ip), vehicle: suspension in saline 96 % of control | endpoint: median survival time, dose: 50.0 mg/kg/injection, schedule: Q01DX009 (ip), vehicle: suspension in saline 108 % of control | endpoint: median survival time, dose: 100.0 mg/kg/injection, schedule: Q01DX009 (ip), vehicle: suspension in saline 103 % of control | endpoint: median survival time, dose: 200.0 mg/kg/injection, schedule: Q01DX009 (ip), vehicle: suspension in saline 94 % of control | endpoint: median survival time, dose: 400.0 mg/kg/injection, schedule: Q01DX009 (ip), vehicle: suspension in saline 91 % of control

O=CNc1ccc2c(c1)C(Br)c1ccccc1-2 (stereo unspecified)
inactive: [5] 93 % of control | [1] 97 % of control | [2] 100 % of control | [9] 88 % of control

c1ccc(COCCOCc2ccccc2)cc1
inactive: [1] 96 % of control | [2] 97 % of control | [9] 108 % of control

O=c1cc(-c2ccccc2)nc(N[N+](=O)[O-])[nH]1
inactive: [1] 100 % of control | [2] 94 % of control

OC1C2CCC(C2)C1C(O)(C(F)(F)Cl)C(F)(F)Cl (stereo unspecified)
inactive: [5] 97 % of control | [6] 91 % of control | [7] 87 % of control

Brc1ccc(-c2csc3cccc[n+]23)cc1
inactive: endpoint: mean survival time, dose: 5.0 mg/kg/injection, schedule: Q04DX003 (ip), vehicle: saline with Tween-80 93 % of control | endpoint: mean survival time, dose: 10.0 mg/kg/injection, schedule: Q04DX003 (ip), vehicle: saline with Tween-80 104 % of control | endpoint: mean survival time, dose: 20.0 mg/kg/injection, schedule: Q04DX003 (ip), vehicle: saline with Tween-80 93 % of control

O=C(O)C1C2C/C(=N\O)C(C2)C1C(=O)O (stereo unspecified)
inactive: endpoint: mean survival time, dose: 50.0 mg/kg/injection, schedule: Q04DX003 (ip), vehicle: saline 94 % of control | [10] 101 % of control | [11] 103 % of control

CN(C)c1ccc(/C=[N+](\[O-])c2ccccc2)cc1
inactive: [4] 92 % of control | [5] 103 % of control | [6] 100 % of control

COc1cc(-c2ccc(N=Nc3c(O)ccc4ccccc34)c(OC)c2)ccc1N=Nc1ccc2c(S(=O)(=O)O)cc(S(=O)(=O)O)c(N)c2c1O
inactive: endpoint: mean survival time, dose: 50.0 mg/kg/injection, schedule: Q01DX001 (ip), vehicle: saline 91 % of control | [8] 94 % of control | [10] 94 % of control | endpoint: mean survival time, dose: 200.0 mg/kg/injection, schedule: Q01DX001 (ip), vehicle: saline 88 % of control | [11] 95 % of control | endpoint: mean survival time, dose: 400.0 mg/kg/injection, schedule: Q01DX001 (ip), vehicle: saline 94 % of control

O=C1C(CO)=C[C@@H](O)[C@H]2O[C@@H]12
inactive: [10] 100 % of control | [11] 102 % of control | endpoint: mean survival time, dose: 400.0 mg/kg/injection, schedule: Q04DX003 (ip), vehicle: saline 102 % of control

O=C(c1ccccc1)c1ccc2c(c1)-c1ccccc1-2
inactive: [5] 94 % of control | [1] 100 % of control | [6] 94 % of control | [2] 93 % of control | [7] 93 % of control | [9] 95 % of control

CC(Cc1ccccc1)NC(C#N)c1ccccc1 (stereo unspecified)
inactive: endpoint: mean survival time, dose: 12.5 mg/kg/injection, schedule: Q01DX009 (ip), vehicle: saline with Tween-80 102 % of control | [3] 98 % of control | [4] 101 % of control

CC(=O)OCCc1nnnn1C
inactive: [5] 101 % of control | [1] 104 % of control | [6] 104 % of control | [2] 104 % of control | [7] 104 % of control | [9] 101 % of control

CCC[CH2][Sn]1([CH2]CCC)[O]OC(c2ccc(C(=O)OCC)cc2)[O]1 (stereo unspecified)
inactive: endpoint: mean survival time, dose: 1.56 mg/kg/injection, schedule: Q04DX002 (ip), vehicle: other 101 % of control | endpoint: mean survival time, dose: 3.13 mg/kg/injection, schedule: Q04DX002 (ip), vehicle: other 116 % of control

COC(=O)c1csc(C2OC(CO)C(O)C2O)n1 (stereo unspecified)
inactive: endpoint: mean survival time, dose: 25.0 mg/kg/injection, schedule: Q01DX005 (ip), vehicle: water 107 % of control | endpoint: mean survival time, dose: 50.0 mg/kg/injection, schedule: Q01DX005 (ip), vehicle: water 103 % of control | endpoint: mean survival time, dose: 100.0 mg/kg/injection, schedule: Q01DX005 (ip), vehicle: water 101 % of control | endpoint: mean survival time, dose: 200.0 mg/kg/injection, schedule: Q01DX005 (ip), vehicle: water 101 % of control | endpoint: mean survival time, dose: 400.0 mg/kg/injection, schedule: Q01DX005 (ip), vehicle: water 102 % of control
